# “Also recorded” adds a separate entry of the source.
# Legend:
# [1] = In vivo pharmacokinetic study of plasma and brain tissue in mice; conditions: male CD-1 mice, 30 mg/kg intraperitoneal
# Experimental: (§1) To determine whether the compounds of the present disclosure are capable of crossing the blood brain barrier (BBB), a key property for use of these compounds as CNS therapeutics, compound 3 was administered to mice in a pharmacokinetic study of plasma and brain tissue. A stable formulation compatible with chronic administration was prepared prior to administration, and analytical methods for measuring concentration of the compound in plasma and brain tissue were developed. Mice were additionally monitored for tolerability for up to 24 hours.
# Animal Husbandry: Male CD-1 mice were group housed during a 2-3 day acclimation prior to the study at an animal room environment with a controlled environment (target conditions: temperature 18-26° C., relative humidity 30-70%, 12 hours artificial light and 12 hours dark). All animals had access to Certified Rodent Diet and water ad libitum.
# (§2) For intraperitoneal (IP) dosing, the dose formulation was administered with a dose volume determined by the animals' body weight collected on the morning of dosing day.
# Sample Collection & Processing:
# Blood Samples: A blood sample (about 0.03 mL per time point) was collected from each mouse into polypropylene tubes at each timepoint. All blood samples were transferred into pre-chilled commercial EDTA-K2 tubes or pre-chilled plastic microcentrifuge tubes containing 2 μL of EDTA-K2 as anti-coagulant and placed on wet ice until centrifugation. Each collected blood sample was centrifuged for 15 minutes at 4° C. and 3000 g for plasma collection. Plasma from each mouse was transferred into a pre-labeled polypropylene tube in dry ice at each time point. After terminal collection, all plasmas were stored at approximately −80° C. until bioanalysis.
# Brain Samples: Whole brain was dissected at each designated time point and rinsed twice cold in deionized water before processing. They were then blotted on filter paper, weighed and homogenized with 5-fold of cold 15 mM PBS/MeOH (V:V, 2:1) using mechanical method. The samples were kept with ice water when homogenizing, and further stored at −80° C. until bioanalysis.
# Bioanalytical Method Development: A LC-MS/MS method was developed and used for the quantitative determination of test compound concentration in blood and brain with a calibration curve applied to determine the limits of quantification.
# In Vivo Sample Analysis: Plasma and brain concentration versus time data along with C^max, Tmax, T1/2, and AUC(0-t) was analyzed by non-compartmental approaches using the Phoenix WinNonlin 6.3 software program.
# [2] = Tolerability monitoring of mice for up to 24 hours; assay type: in vivo; conditions: male CD-1 mice, 30 mg/kg intraperitoneal, monitored up to 24 hours
# Experimental: as §1
# A152T neurons = assay: Neuronal viability / rescue of stress vulnerability to β-amyloid (1-42) peptide; conditions: A152T neurons differentiated 8 weeks, FIG. 7
# [3] = Dose formulation in 20% PEG400 in water; assay type: physicochemical; conditions: 5.00 mg/mL in 20% PEG400 in water
# Experimental: as §2
# tau protein = biological target: T1, tau protein (Homo sapiens, UniProt P10636, A469T); assay: Tau degradation assay (western blot) in human tau-A152T neurons; assay type: cell-based; conditions: 6-week differentiated A152T neurons; treatment for 24 hours; FIG. 6
# T1 construct: cultured human differentiated frontotemporal lobar dementia (FTD) neurons; endogenous in cells; host or cells: human differentiated FTD neurons, tau-A152T (line 19-5-RC6)
# T1 sequence (P10636 1-441 isoform P10636-8 A152T): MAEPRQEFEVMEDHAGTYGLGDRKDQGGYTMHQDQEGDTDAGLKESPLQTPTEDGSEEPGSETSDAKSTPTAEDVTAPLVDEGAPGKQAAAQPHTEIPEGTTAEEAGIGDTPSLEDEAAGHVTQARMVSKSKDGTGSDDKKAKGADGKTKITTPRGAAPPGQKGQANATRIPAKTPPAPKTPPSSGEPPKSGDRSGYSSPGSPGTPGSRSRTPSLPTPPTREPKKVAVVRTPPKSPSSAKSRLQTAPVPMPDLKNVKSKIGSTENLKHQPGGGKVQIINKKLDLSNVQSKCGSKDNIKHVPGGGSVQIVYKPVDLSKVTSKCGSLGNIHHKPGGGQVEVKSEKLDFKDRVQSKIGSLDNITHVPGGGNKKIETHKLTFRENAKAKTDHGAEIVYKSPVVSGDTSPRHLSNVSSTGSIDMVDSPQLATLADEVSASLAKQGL
# Experimental: Example compounds 1-12 were evaluated for their ability to degrade tau protein in cultured human differentiated frontotemporal lobar dementia (FTD) neurons. […] For each condition, 1 well of differentiated neuronal cells (6 well-plate) was washed and collected in PBS, pelleted and lysed in RIPA buffer (Boston Bio-Products) with 2% SDS (Sigma), protease inhibitors (Roche Complete Mini tablets), and phosphatase inhibitors (Sigma), followed by sonication in a water sonicator (Bransonic Ultrasonic Baths, Thomas Scientific) for 5 min, and centrifugation at 20,000 g for 15 min. Supernatants were transferred to new tubes, total protein concentration was quantified with the Pierce BCA Protein Assay Kit (Thermo), and SDS-PAGE gels were loaded with 10 μg total protein per well (pre-boiled samples). Western blots were performed with the Novex NuPAGE SDS-PAGE Gel System (Invitrogen). All samples were resolved in 7% Tris-Acetate gels with Tris-Acetate running buffer (Invitrogen). Blots were probed with antibodies against total tau (TAU5) and phosphosrylated tau (Ser396), along with β-actin as a loading control; followed by corresponding HRP-linked secondary antibodies (Cell Signaling Technology), and SuperSignal West Pico Chemiluminescent Substrate (Thermo) detection. Membranes were exposed to autoradiographic film (LabScientific) and films were scanned using an Epson Perfection V800 Photo Scanner. Protein band intensities (pixel mean intensity) were quantified using Adobe Photoshop CS5 Histogram function. Whereas the vehicle alone (DMSO) had no effect on tau, varying degrading activity was observed amongst the compounds, however with overall similar relative levels of degrading activity between tau-A152T neurons and tau-P301L neurons. Compounds were added at the doses indicated of either 0.1, 1, 5, or 10 μM.
# Four-week differentiated neurons, both non-mutant (8330-8) and tau-A152T (19-5-RC6) were employed. The neurons were treated with T807 for 24 hours (at 10 μg/mL=59.4 μM). One well of differentiated neuronal cells (6 well-plate, treated or untreated) was washed and collected in PBS, pelleted and directly lysed in 200 μL of Sample Buffer (New England Biolabs) supplemented with 3X DTT, boiled for 15 min and 10 μL of each lysate was run by SDS-PAGE in a 4-12% Bis-Tris Gel, with MOPS running buffer. Blots were probed with antibodies to total tau (DA9) and phosphorylated tau (Ser396, PHF1, AT8) along with GAPDH as a loading control.
# Example compounds 2-5 were reevaluated for their ability to degrade tau protein in human FTD neurons as well as evaluate their effect on E3 ubiquitin ligases CRBN, VHL, and CHIP (FIG. 4A-E). For each control and treatment, 1 well of differentiated neuronal cells (6 well-plate) was washed and collected in PBS, pelleted and lysed in RIPA buffer (Boston Bio-Products) with 2% SDS (Sigma), protease inhibitors (Roche Complete Mini tablets), and phosphatase inhibitors (Sigma), followed by sonication in a water sonicator (Bransonic Ultrasonic Baths, Thomas Scientific) for 5 min, and centrifugation at 20,000 g for 15 min. Supernatants were transferred to new tubes, total protein concentration was quantified with the Pierce BCA Protein Assay Kit (Thermo), and SDS-PAGE gels were loaded with 10 μg total protein per well (pre-boiled samples). […] Protein band intensities (pixel mean intensity) were quantified using Adobe Photoshop CS5 Histogram function. […]
structure (smiles),measurement,setting,value
"O=C(CCc1ccc2c(c1)[nH]c1ccncc12)NCCOCCOCCNc1cccc2c1C(=O)N(C1CCC(=O)NC1=O)C2=O (stereo not shown) [Compound 3, N-(2-(2-(2-((2-(2,6-dioxopiperidin-3-yl)-1,3-dioxoisoindolin-4-yl)amino)ethoxy)ethoxy)ethyl)-3-(5H-pyrido[4,3-b]indol-7-yl)propanamide]",brain penetration / crossing the blood-brain barrier,"[1]; 20% PEG400/water, n=3 per group, 30 mg/kg",capable of brain penetration; also recorded: capable of crossing the blood-brain barrier
same,"AUC0-last, Mean Brain",[1]; brain,74.3 ng·h/mL
same,"Cmax, Mean Brain",[1]; brain,56.4 ng/mL
same,"Tmax, Mean Brain",[1]; brain,0.500 h
same,"AUC0-last, Mean Plasma",[1]; plasma,6938 ng·h/mL
same,"Cmax, Mean Plasma",[1]; plasma,4640 ng/mL
same,"T1/2, Mean Plasma",[1]; plasma,7.23 h
same,"Tmax, Mean Plasma",[1]; plasma,1.00 h
same,tolerability / adverse effects,[2],no adverse effects were observed; also recorded: well tolerated
same,rescue of stress vulnerability,"A152T neurons; 8 h pre-treatment, then 10 μM β-amyloid (1-42) peptide for 16 h",effective at rescuing stress vulnerability
same,effect on neuronal viability,A152T neurons; compound alone,no effect on neuronal viability
same,appearance/stability of dose formulation,[3],"clear, stable solution"
same,dose-dependency of effect on tau,tau protein,dose dependent effect on tau
